Assay results: US20090253669A1, “Substituted Sulfonamide Compounds” (GRUENENTHAL GmbH, priority 2008, published 2009)

How the values were obtained:
[1] = biological target: T1, B1R receptor of the rat (rB1R) (Rattus norvegicus, UniProt P97583); test: FLIPR Ca2+ assay on rB1R-transfected CHO K1 cells, antagonistic action; type: cell-based; details: CHO-K1, 10 μM test substance; agonist Des-Arg9-bradykinin 100 nM; % of maximum achievable inhibition; read-out: rB1R [10 μM] % inhibition
T1 construct: host or cells: CHO K1 cells
T1 sequence (P97583 1-337): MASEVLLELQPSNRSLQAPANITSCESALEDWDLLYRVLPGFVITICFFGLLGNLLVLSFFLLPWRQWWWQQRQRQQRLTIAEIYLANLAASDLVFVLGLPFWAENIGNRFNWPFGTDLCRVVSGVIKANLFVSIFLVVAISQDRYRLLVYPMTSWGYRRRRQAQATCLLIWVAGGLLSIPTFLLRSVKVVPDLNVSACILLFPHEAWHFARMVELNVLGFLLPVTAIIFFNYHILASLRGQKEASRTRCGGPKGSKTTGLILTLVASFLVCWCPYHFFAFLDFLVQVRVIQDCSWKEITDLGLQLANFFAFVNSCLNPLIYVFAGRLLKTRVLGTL

[2] = biological target: T2, human B1R receptor (hB1R) (Homo sapiens, UniProt P46663); test: FLIPR Ca2+ assay on hB1R-transfected CHO K1 cells, antagonistic action; type: cell-based; details: CHO-K1, 10 μM test substance; agonist Lys-Des-Arg9-bradykinin 0.5 nM; % of maximum achievable inhibition; read-out: hB1R [10 μM] % inhibition
T2 construct: host or cells: CHO K1 cells
T2 sequence (P46663 1-353): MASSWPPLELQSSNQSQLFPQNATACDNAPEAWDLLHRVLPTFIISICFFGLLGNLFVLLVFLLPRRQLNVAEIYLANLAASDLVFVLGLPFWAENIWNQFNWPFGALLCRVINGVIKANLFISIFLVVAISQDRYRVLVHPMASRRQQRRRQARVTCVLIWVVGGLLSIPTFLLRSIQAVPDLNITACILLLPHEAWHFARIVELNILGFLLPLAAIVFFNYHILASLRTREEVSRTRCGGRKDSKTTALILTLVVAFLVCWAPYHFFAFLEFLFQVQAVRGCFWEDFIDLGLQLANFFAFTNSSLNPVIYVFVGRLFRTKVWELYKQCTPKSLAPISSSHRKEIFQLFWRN

| Compound | inhibition at 10 µM [1] [%] | inhibition at 10 µM [2] [%] |
| --- | --- | --- |
| COc1cc(C)c(S(=O)(=O)N2CCCCC2COCC(=O)N2CCC(Cc3ccccc3)(N(C)C)CC2)c(C)c1 (centres unmarked) [Compound 65, 1-(4-benzyl-4-(dimethylamino)piperidin-1-yl)-2-((1-(4-methoxy-2,6-dimethylphenylsulfonyl)piperidin-2-yl)methoxy)ethanone] | 100 | 104 |
| COc1cc(C)c(S(=O)(=O)N(C)CCOCC(=O)N2CCC(Cc3ccccc3)(N(C)C)CC2)c(C)c1 [Compound 63, N-(2-(2-(4-benzyl-4-(dimethylamino)piperidin-1-yl)-2-oxoethoxy)ethyl)-4-methoxy-N,2,6-trimethylbenzenesulfonamide] | 100 | 102 |
| COc1cc(C)c(S(=O)(=O)N2CCCC2COCC(=O)NC2CCC(c3ccccc3)(N3CCCC3)CC2)c(C)c1 (centres unmarked) [Compound 145, 2-((1-(4-methoxy-2,6-dimethylphenylsulfonyl)pyrrolidin-2-yl)methoxy)-N-(4-phenyl-4-(pyrrolidin-1-yl)cyclohexyl)acetamide] | 110 | 92 |
| COc1cc(C)c(S(=O)(=O)N2CCCCC2COCC(=O)N(C)CC2CCC(c3ccccc3)(N3CCCC3)CC2)c(C)c1 (centres unmarked) [Compound 66, 2-((1-(4-methoxy-2,6-dimethylphenylsulfonyl)piperidin-2-yl)methoxy)-N-methyl-N-((4-phenyl-4-(pyrrolidin-1-yl)cyclohexyl)methyl)acetamide] | 100 | 102 |
| COc1cc(C)c(S(=O)(=O)N2CCC(OCC(=O)N(C)CC3CCC(CCc4ccccc4)(N4CCN(C)CC4)CC3)C2)c(C)c1 (centres unmarked) [Compound 177, 2-(1-(4-methoxy-2,6-dimethylphenylsulfonyl)pyrrolidin-3-yloxy)-N-methyl-N-((4-(4-methylpiperazin-1-yl)-4-phenethylcyclohexyl)methyl)acetamide] | 76 | 103 |
| Cc1ccccc1CC1(N(C)C)CCC(NC(=O)CC2c3ccccc3CCN2S(=O)(=O)c2ccc(Cl)c(Cl)c2)CC1 (centres unmarked) [Compound 12, 2-(2-(3,4-dichlorophenylsulfonyl)-1,2,3,4-tetrahydroisoquinolin-1-yl)-N-(4-(dimethylamino)-4-(2-methylbenzyl)cyclohexyl)acetamide] | 88 | 77 |
| Cc1cc(S(=O)(=O)N2CCCCC2CCC(=O)N2CCC(c3ccccc3)(N(C)C)CC2)c(C)cc1Cl (centres unmarked) [Compound 123, 3-(1-(4-chloro-2,5-dimethylphenylsulfonyl)piperidin-2-yl)-1-(4-(dimethylamino)-4-phenylpiperidin-1-yl)propan-1-one] | 60 | 103 |
| COc1cc(C)c(S(=O)(=O)N2CCCCC2CCOCC(=O)N2CCC(c3cccc(F)c3)(N3CCN(C)CC3)CC2)c(C)c1 (centres unmarked) [Compound 227, 1-(4-(3-Fluorophenyl)-4-(4-methylpiperazin-1-yl)piperidin-1-yl)-2-(2-(1-(4-methoxy-2,6-dimethylphenylsulfonyl)piperidin-2-yl)ethoxy)ethanone] | 99 | 100 |
| COc1cc(C)c(S(=O)(=O)N2CCCCC2COCC(=O)N(C)CCCC2CCC(Cc3ccccc3)(N3CCCC3)CC2)c(C)c1 (centres unmarked) [Compound 88, N-(3-(4-benzyl-4-(pyrrolidin-1-yl)cyclohexyl)propyl)-2-((1-(4-methoxy-2,6-dimethylphenylsulfonyl)piperidin-2-yl)methoxy)-N-methylacetamide] | 98 | 101 |
| CN1CCN(C2(Cc3ccccc3)CCN(C(=O)COCC3CCc4ccccc4N3S(=O)(=O)c3ccc(Cl)c(Cl)c3)CC2)CC1 (centres unmarked) [Compound 108, 1-(4-benzyl-4-(4-methylpiperazin-1-yl)piperidin-1-yl)-2-((1-(3,4-dichlorophenylsulfonyl)-1,2,3,4-tetrahydroquinolin-2-yl)methoxy)ethanone] | 79 | 60 |
| CN(C)C1(CCc2ccccc2)CCN(C(=O)CC2CCCCN2S(=O)(=O)c2cccc(C(F)(F)F)c2)CC1 (centres unmarked) [Compound 71, 1-(4-(dimethylamino)-4-phenethylpiperidin-1-yl)-2-(1-(3-(trifluoromethyl)phenylsulfonyl)piperidin-2-yl)ethanone] | 99 | 92 |
| Cc1cc(S(=O)(=O)N2CCCCC2CCC(=O)N(C)CCCC2CCC(c3ccccc3)(N3CCCC3)CC2)c(C)cc1Cl (centres unmarked) [Compound 136, 3-(1-(4-chloro-2,5-dimethylphenylsulfonyl)piperidin-2-yl)-N-methyl-N-(3-(4-phenyl-4-(pyrrolidin-1-yl)cyclohexyl)propyl)propanamide] | 32 | 99 |
| COc1cc(C)c(S(=O)(=O)N2CCCCC2COCC(=O)N2CCC(CCc3ccccc3)(N3CCN(C)CC3)CC2)c(C)c1 (centres unmarked) [Compound 77, 2-((1-(4-methoxy-2,6-dimethylphenylsulfonyl)piperidin-2-yl)methoxy)-1-(4-(4-methylpiperazin-1-yl)-4-phenethylpiperidin-1-yl)ethanone] | 99 | 100 |
| COc1cc(C)c(S(=O)(=O)N2CCCC(COCC(=O)NC3CCC(Cc4ccccc4)(N4CCCC4)CC3)C2)c(C)c1 (centres unmarked) [Compound 180, N-(4-benzyl-4-(pyrrolidin-1-yl)cyclohexyl)-2-((1-(4-methoxy-2,6-dimethylphenylsulfonyl)piperidin-3-yl)methoxy)acetamide] | 73 | 71 |
| COc1cc(C)c(S(=O)(=O)N(C)CCOCC(=O)N(C)CC2CCC(c3ccccc3)(N3CCCC3)CC2)c(C)c1 (centres unmarked) [Compound 35, 2-(2-(4-methoxy-N,2,6-trimethylphenylsulfonamido)ethoxy)-N-methyl-N-((4-phenyl-4-(pyrrolidin-1-yl)cyclohexyl)methyl)acetamide] | 101 | 102 |
| COc1cc(C)c(S(=O)(=O)N2CCCCC2COCC(=O)N(C)CCC2CCC(c3ccccc3)(N(C)C)CC2)c(C)c1 (centres unmarked) [Compound 81, N-(2-(4-(dimethylamino)-4-phenylcyclohexyl)ethyl)-2-((1-(4-methoxy-2,6-dimethylphenylsulfonyl)piperidin-2-yl)methoxy)-N-methylacetamide] | 99 | 104 |
| COc1cc(C)c(S(=O)(=O)N2CCCCC2COCC(=O)N2CCC(CCc3ccccc3)(N(C)C)CC2)c(C)c1 (centres unmarked) [Compound 50, 1-(4-(dimethylamino)-4-phenethylpiperidin-1-yl)-2-((1-(4-methoxy-2,6-dimethylphenylsulfonyl)piperidin-2-yl)methoxy)ethanone] | 100 | 102 |
| COc1cc(C)c(S(=O)(=O)N(C)CCOCC(=O)NC2CCC(c3ccccc3)(N3CCCCC3)CC2)c(C)c1C (centres unmarked) [Compound 28, 2-(2-(4-methoxy-N,2,3,6-tetramethylphenylsulfonamido)ethoxy)-N-(4-phenyl-4-(piperidin-1-yl)cyclohexyl)acetamide] | 48 | 60 |
| CN1CCN(C2(Cc3ccccc3)CCN(C(=O)CC(NS(=O)(=O)c3ccc4ccccc4c3)c3ccccc3)CC2)CC1 (centres unmarked) [Compound 118, N-(3-(4-benzyl-4-(4-methylpiperazin-1-yl)piperidin-1-yl)-3-oxo-1-phenylpropyl)naphthalene-2-sulfonamide] | 69 | 101 |
| Cc1cccc(Cl)c1S(=O)(=O)N1c2ccccc2OCC1COCC(=O)N1CCC(c2cccc(F)c2)(N2CCN(C)CC2)CC1 (centres unmarked) [Compound 222, 2-((4-(2-Chloro-6-methylphenylsulfonyl)-3,4-dihydro-2H-benzo[b][1,4]oxazin-3-yl)methoxy)-1-(4-(3-fluorophenyl)-4-(4-methylpiperazin-1-yl)piperidin-1-yl)ethanone] | 97 | 97 |
| CN(CCC1CCC(CCc2ccccc2)(N(C)C)CC1)C(=O)COCC1CCc2ccccc2N1S(=O)(=O)c1ccc(Cl)c(Cl)c1 (centres unmarked) [Compound 101, 2-((1-(3,4-dichlorophenylsulfonyl)-1,2,3,4-tetrahydroquinolin-2-yl)methoxy)-N-(2-(4-(dimethylamino)-4-phenethylcyclohexyl)ethyl)-N-methylacetamide] | 88 | 99 |
| Cc1cc(S(=O)(=O)N2CCCCC2CCC(=O)N(C)CC2CCC(c3ccccc3)(N3CCCC3)CC2)c(C)cc1Cl (centres unmarked) [Compound 140, 3-(1-(4-chloro-2,5-dimethylphenylsulfonyl)piperidin-2-yl)-N-methyl-N-((4-phenyl-4-(pyrrolidin-1-yl)cyclohexyl)methyl)propanamide] | 21 | 103 |
